Literature values in PMC4364341, “NBD delivery improves the disease phenotype of the golden retriever model of Duchenne muscular dystrophy” (Skeletal Muscle, 2014).

System: GRMD dogs
Conditions: previous GRMD prednisone trial; cited from earlier work
Source text: This functional benefit obtained by NBD in GRMD dogs was consistent with that obtained in the mdx murine model of DMD [13].

C[C@]12C=CC(=O)C=C1CC[C@@H]1[C@@H]2C(=O)C[C@@]2(C)[C@H]1CC[C@]2(O)C(=O)CO [prednisone]
Extension force in treated GRMD dogs: increased extension force
